Data from ChEMBL document CHEMBL2311467, “Microwave-assisted synthesis of pyrimido[4,5-b][1,6]naphthyridin-4(3H)-ones with potential antitumor activity” (Eur J Med Chem, 2013).

Legend:
Format in all cases: functional
HOP-62 = test: Cytotoxicity against human HOP62 after 48 hrs by SRB assay; conditions: HOP-62, 48 h
RXF 393 = test: Cytotoxicity against human RXF393 after 48 hrs by SRB assay; conditions: RXF 393, 48 h
[1] = Cytotoxicity against human EKVX after 48 hrs by SRB assay
OVCAR-3 = test: Cytotoxicity against human OVCAR3 after 48 hrs by SRB assay; conditions: OVCAR-3, 48 h
MDA-MB-435 = test: Cytotoxicity against human MDA-MB-435 after 48 hrs by SRB assay; conditions: MDA-MB-435, 48 h
SR = test: Cytotoxicity against human SR after 48 hrs by SRB assay
HT-29 = test: Cytotoxicity against human HT-29 after 48 hrs by SRB assay; conditions: HT-29, 48 h
SK-MEL-28 = test: Cytotoxicity against human SK-MEL-28 after 48 hrs by SRB assay; conditions: SK-MEL-28, 48 h
M14 = test: Cytotoxicity against human M14 after 48 hrs by SRB assay; conditions: M14, 48 h
OVCAR-5 = test: Cytotoxicity against human OVCAR5 after 48 hrs by SRB assay; conditions: OVCAR-5, 48 h
HOP-92 = test: Cytotoxicity against human HOP92 after 48 hrs by SRB assay; conditions: HOP-92, 48 h
OVCAR-4 = test: Cytotoxicity against human OVCAR4 after 48 hrs by SRB assay; conditions: OVCAR-4, 48 h
MOLT-4 = test: Cytotoxicity against human MOLT4 after 48 hrs by SRB assay; conditions: MOLT-4, 48 h
UACC-257 = test: Cytotoxicity against human UACC257 after 48 hrs by SRB assay; conditions: UACC-257, 48 h
UO-31 = test: Cytotoxicity against human UO31 after 48 hrs by SRB assay; conditions: UO-31, 48 h
[2] = read-out: LC50 (the source's name)

Structure (SMILES): COc1cc(/C=C2\CN(C)CC3=C2Nc2nc(SC)[nH]c(=O)c2C3c2cc(OC)c(OC)c(OC)c2)cc(OC)c1OC (stereo not given)
- GI50 (HOP-62): 2.46 µM
- CC50 (HOP-62; [2]): 41.3 µM
- GI50 (RXF 393): 1.81 µM
- CC50 (RXF 393; [2]): 6.61 µM
- GI50 [1]: 8.44 µM
- CC50 [1, 2]: > 100 µM
- GI50 (OVCAR-3): 2.64 µM
- CC50 (OVCAR-3; [2]): 23.4 µM
- GI50 (MDA-MB-435): 2.51 µM
- CC50 (MDA-MB-435; [2]): 39.8 µM
- GI50 (SR): 1.48 µM
- CC50 (SR; [2]): > 100 µM
- GI50 (HT-29): 2.35 µM
- CC50 (HT-29; [2]): 16.3 µM
- GI50 (SK-MEL-28): 2.1 µM
- CC50 (SK-MEL-28; [2]): 8.79 µM
- GI50 (M14): 2.98 µM
- CC50 (M14; [2]): 50.9 µM
- GI50 (OVCAR-5): 4.83 µM
- CC50 (OVCAR-5; [2]): 48.7 µM
- GI50 (HOP-92): 3.4 µM
- CC50 (HOP-92; [2]): 53.4 µM
- GI50 (OVCAR-4): 4.99 µM
- CC50 (OVCAR-4; [2]): 81 µM
- GI50 (MOLT-4): 2.92 µM
- CC50 (MOLT-4; [2]): > 100 µM
- GI50 (UACC-257): 2.24 µM
- CC50 (UACC-257; [2]): 29.1 µM
- GI50 (UO-31): 1.57 µM
- CC50 (UO-31; [2]): 7.54 µM
